# Assay results: patent US11883526B2 (priority 2019, dated 2024)
# Like-named read-outs stand apart in the source and are kept apart here.
# System: subjects with MDD at imminent risk for suicide
# Settings: 84 mg
# [1] = TEAE, double-blind phase, N = 35
# [2] = adverse event, follow up phase, N = 27
# [3] = overall summary, double-blind phase, N = 35
# [4] = serious TEAE, double-blind phase, N = 35
# [5] = serious adverse event, follow up phase, N = 27
smiles,measurement,setting,value
"CN[C@]1(c2ccccc2Cl)CCCCC1=O [esketamine, (S)-2-(2-chlorophenyl)-2-(methylamino)cyclohexanone]",Vertigo: no. of subjects,[1],4
same,Vision blurred: % of subjects,[1],(8.6%)
same,Vision blurred: no. of subjects,[1],3
same,Vomiting: % of subjects,[1],(20.0%)
same,Vomiting: no. of subjects,[1],7
same,Weight increased: % of subjects,[1],(5.7%)
same,Weight increased: no. of subjects,[1],2
same,Abdominal pain: % of subjects,[2],(3.7%)
same,Abdominal pain: no. of subjects,[2],1
same,Abdominal tenderness: % of subjects,[2],(3.7%)
same,Abdominal tenderness: no. of subjects,[2],1
same,Aphthous ulcer: no. of subjects,[2],0
same,Back pain: % of subjects,[2],(3.7%)
same,Back pain: no. of subjects,[2],1
same,Bronchitis: no. of subjects,[2],0
same,Cellulitis: no. of subjects,[2],0
same,Cogwheel rigidity: % of subjects,[2],(3.7%)
same,Cogwheel rigidity: no. of subjects,[2],1
same,Contusion: % of subjects,[2],(3.7%)
same,Contusion: no. of subjects,[2],1
same,Depressed mood: no. of subjects,[2],0
same,Depression: % of subjects,[2],(3.7%)
same,Depression: no. of subjects,[2],1
same,Diarrhea: % of subjects,[2],(3.7%)
same,Diarrhea: no. of subjects,[2],1
same,Dizziness: % of subjects,[2],(3.7%)
same,Dizziness: no. of subjects,[2],1
same,Drug hypersensitivity: no. of subjects,[2],0
same,Dry mouth: % of subjects,[2],(7.4%)
same,Dry mouth: no. of subjects,[2],2
same,Dysgeusia: % of subjects,[2],(3.7%)
same,Dysgeusia: no. of subjects,[2],1
same,Ear and labyrinth disorders: no. of subjects,[2],0
same,Ear infection: % of subjects,[2],(3.7%)
same,Ear infection: no. of subjects,[2],1
same,Epistaxis: % of subjects,[2],(3.7%)
same,Epistaxis: no. of subjects,[2],1
same,Flank pain: % of subjects,[2],(3.7%)
same,Flank pain: no. of subjects,[2],1
same,Folliculitis: no. of subjects,[2],0
same,Gastrointestinal disorders: % of subjects,[2],(22.2%)
same,Gastrointestinal disorders: no. of subjects,[2],6
same,Headache: % of subjects,[2],(7.4%)
same,Headache: no. of subjects,[2],2
same,Immune system disorders: no. of subjects,[2],0
same,Infections and infestations: % of subjects,[2],(11.1%)
same,Infections and infestations: no. of subjects,[2],3
same,Influenza: no. of subjects,[2],0
same,"Injury, poisoning and procedural complications: % of subjects",[2],(7.4%)
same,"Injury, poisoning and procedural complications: no. of subjects",[2],2
same,Insomnia: % of subjects,[2],(11.1%)
same,Insomnia: no. of subjects,[2],3
same,Intentional self-injury: % of subjects,[2],(3.7%)
same,Intentional self-injury: no. of subjects,[2],1
same,Loss of consciousness: % of subjects,[2],(3.7%)
same,Loss of consciousness: no. of subjects,[2],1
same,Meniere's disease: no. of subjects,[2],0
same,Metabolism and nutrition disorders: no. of subjects,[2],0
same,Migraine: % of subjects,[2],(3.7%)
same,Migraine: no. of subjects,[2],1
same,Musculoskeletal and connective tissue disorders: % of subjects,[2],(7.4%)
same,Musculoskeletal and connective tissue disorders: no. of subjects,[2],2
same,Musculoskeletal chest pain: % of subjects,[2],(3.7%)
same,Musculoskeletal chest pain: no. of subjects,[2],1
same,Musculoskeletal pain: % of subjects,[2],(3.7%)
same,Musculoskeletal pain: no. of subjects,[2],1
same,Nasal congestion: % of subjects,[2],(3.7%)
same,Nasal congestion: no. of subjects,[2],1
same,Nasopharyngitis: % of subjects,[2],(3.7%)
same,Nasopharyngitis: no. of subjects,[2],1
same,Nausea: no. of subjects,[2],0
same,Neck pain: % of subjects,[2],(3.7%)
same,Neck pain: no. of subjects,[2],1
same,Nervous system disorders: % of subjects,[2],(22.2%)
same,Nervous system disorders: no. of subjects,[2],6
same,Night sweats: % of subjects,[2],(3.7%)
same,Night sweats: no. of subjects,[2],1
same,Panic reaction: no. of subjects,[2],0
same,Pelvic pain: % of subjects,[2],(3.7%)
same,Pelvic pain: no. of subjects,[2],1
same,Pharyngitis: % of subjects,[2],(7.4%)
same,Pharyngitis: no. of subjects,[2],2
same,Polydipsia: no. of subjects,[2],0
same,Procedural pain: no. of subjects,[2],0
same,Psychiatric disorders: % of subjects,[2],(18.5%)
same,Psychiatric disorders: no. of subjects,[2],5
same,Rash: no. of subjects,[2],0
same,Renal and urinary disorders: no. of subjects,[2],0
same,Renal failure: no. of subjects,[2],0
same,Reproductive system and breast disorders: % of subjects,[2],(3.7%)
same,Reproductive system and breast disorders: no. of subjects,[2],1
same,"Respiratory, thoracic and mediastinal disorders: % of subjects",[2],(7.4%)
same,"Respiratory, thoracic and mediastinal disorders: no. of subjects",[2],2
same,Restlessness: % of subjects,[2],(3.7%)
same,Restlessness: no. of subjects,[2],1
same,Road traffic accident: % of subjects,[2],(3.7%)
same,Road traffic accident: no. of subjects,[2],1
same,Sedation: % of subjects,[2],(3.7%)
same,Sedation: no. of subjects,[2],1
same,Self-injurious ideation: no. of subjects,[2],0
same,Sexual dysfunction: no. of subjects,[2],0
same,Skin and subcutaneous tissue disorders: % of subjects,[2],(3.7%)
same,Skin and subcutaneous tissue disorders: no. of subjects,[2],1
same,Somnolence: no. of subjects,[2],0
same,Suicidal ideation: % of subjects,[2],(3.7%)
same,Suicidal ideation: no. of subjects,[2],1
same,Suicide attempt: no. of subjects,[2],0
same,Tooth impacted: no. of subjects,[2],0
same,Toothache: no. of subjects,[2],0
same,Total no. subjects with adverse events: % of subjects,[2],(48.1%)
same,Total no. subjects with adverse events: no. of subjects,[2],13
same,Tremor: % of subjects,[2],(7.4%)
same,Tremor: no. of subjects,[2],2
same,Upper respiratory tract infection: % of subjects,[2],(3.7%)
same,Upper respiratory tract infection: no. of subjects,[2],1
same,Viral upper respiratory tract infection: no. of subjects,[2],0
same,Vomiting: % of subjects,[2],(3.7%)
same,Vomiting: no. of subjects,[2],1
same,Vulvovaginal mycotic infection: % of subjects,[2],(3.7%)
same,Vulvovaginal mycotic infection: no. of subjects,[2],1
same,1 or more serious TEAE: % of subjects,[3],11.4%
same,1 or more serious TEAE: no. of subjects,[3],4
same,Possibly related TEAE: % of subjects,[3],82.9%
same,Possibly related TEAE: no. of subjects,[3],29
same,TEAE leading to death: no. of subjects,[3],0
same,TEAE leading to drug withdrawn: % of subjects,[3],14.3%
same,TEAE leading to drug withdrawn: no. of subjects,[3],5
same,TEAE: % of subjects,[3],94.3%
same,TEAE: no. of subjects,[3],33
same,Agitation: % of subjects,[4],2.9%
same,Agitation: no. of subjects,[4],1
same,Depressive symptom: % of subjects,[4],2.9%
same,Depressive symptom: no. of subjects,[4],1
same,Psychiatric disorders: % of subjects,[4],11.4%
same,Psychiatric disorders: no. of subjects,[4],4
same,Suicidal ideation: % of subjects,[4],5.7%
same,Suicidal ideation: no. of subjects,[4],2
same,Total no. subjects with a serious TEAE: % of subjects,[4],11.4%
same,Total no. subjects with a serious TEAE: no. of subjects,[4],4
same,Cellulitis: no. of subjects,[5],0
same,Infections and infestations: no. of subjects,[5],0
same,Psychiatric disorders: % of subjects,[5],3.7%
same,Psychiatric disorders: no. of subjects,[5],1
same,Suicidal ideation: % of subjects,[5],3.7%
same,Suicidal ideation: no. of subjects,[5],1
same,Suicide attempt: no. of subjects,[5],0
same,Total no. subjects with a serious adverse event: % of subjects,[5],3.7%
same,Total no. subjects with a serious adverse event: no. of subjects,[5],1
